Test results published in patent publication US20260159481A1, “INDOLE DERIVATIVE WITH SUBSTITUENT AND PHARMACEUTICAL USE” (MITOIMMUNE THERAPEUTICS INC., priority 2023, published 2026).

System: cardiac cells (H9C2)
Assay: Protective effect against t-BHP-induced cell death in cardiac cells (LDH release)
Format: cell-based
Conditions: Rattus norvegicus, t-BHP 400 PM, 2 hours, read-out: EC50, protective effect against cell death due to t-BHP induction
Method: To confirm a protective effect on cardiac cells, H9C2 cells were seeded at 1.5×10^4 cells/well in a 96-well plate and cultured for 24 hours. The example compounds were diluted to have the final concentration of 0.001, 0.01, 0.03, 0.1, 0.3, 1, 3, 10, and 30 PM, respectively, and then added to different wells, and the resulting cells were cultured for 15 to 20 minutes. Tert-butyl hydroperoxide (t-BHP) was treated to have the final concentration of 400 PM, and the resulting cells were cultured for 2 hours. To confirm the cell death protection effect of each compound, the degree of extracellular secretion of lactate dehydrogenase (LDH) was measured using a cytotoxicity LDH assay kit [Dojindo; CK12]. Briefly, after 2 hours of t-BHP treatment on the cells, 70 μL of the supernatant was taken from the 96-well plate where the cells were cultured and transferred to a new 96-well plate. The assay buffer included in the kit was added at 70 μL/well (equal to that of the sample) and the plate was covered with foil to block light and allowed to react for 15 minutes at room temperature. While observing a color change of each sample, 35 μL/well of a stop solution was added, an absorbance at 490 nm was measured using an iD3 spectrophotometer, and an EC50 value was calculated.

SMILES | EC50 [nM]
CS(=O)(=O)CCOCc1cc(NC2CCOCC2)c2[nH]c(-c3ccccc3)cc2c1 [Example 45, 5-((2-(methylsulfonyl)ethoxy)methyl)-2-phenyl-N-(tetrahydro-2H-pyran-4-yl)-1H-indol-7-amine] | ≤ 300
CNC(=O)Cc1cc(NC2CCCC2)c2[nH]c(-c3ccccc3)cc2c1 [Example 16, 2-(7-(cyclopentylamino)-2-phenyl-1H-indol-5-yl)-N-methylacetamide] | ≤ 300
CN(CCOCCO)C(=O)c1cc(NC2CCOCC2)c2[nH]c(-c3ccccc3)cc2c1 [Example 54, N-(2-(2-hydroxyethoxy)ethyl)-N-methyl-2-phenyl-7-((tetrahydro-2H-pyran-4-yl)amino)-1H-indole-5-carboxamide] | 300 to 1000
CC(C)(O)COCCOCc1cc(NC2CCOCC2)c2[nH]c(-c3ccccc3)cc2c1 [Example 31, 2-methyl-1-(2-((2-phenyl-7-((tetrahydro-2H-pyran-4-yl)amino)-1H-indol-5-yl)methoxy)ethoxy)propan-2-ol] | ≤ 300
O=C(Nc1ccccc1)c1cc(NCc2ccccc2)c2[nH]c(-c3ccccc3)cc2c1 [Example 10, 7-(benzylamino)-N,2-diphenyl-1H-indole-5-carboxamide] | 300 to 1000
OCCOCCCc1cc(NC2CCOCC2)c2[nH]c(-c3ccccc3)cc2c1 [Example 28, 2-(3-(2-phenyl-7-((tetrahydro-2H-pyran-4-yl)amino)-1H-indol-5-yl)propoxy)ethan-1-ol] | ≤ 300
CCN(CC)C(=O)c1cc(NCc2ccccc2)c2[nH]c(-c3ccccc3)cc2c1 [Example 3, 7-(benzylamino)-N,N-diethyl-2-phenyl-1H-indole-5-carboxamide] | ≤ 300
COCCNCCOCc1cc(NC2CCOCC2)c2[nH]c(-c3ccccc3)cc2c1 [Example 60, 5-((2-((2-methoxyethyl)amino)ethoxy)methyl)-2-phenyl-N-(tetrahydro-2H-pyran-4-yl)-1H-indol-7-amine] | ≤ 300
OC1CCC(OCCOCc2cc(NC3CCOCC3)c3[nH]c(-c4ccccc4)cc3c2)CC1 (centres unmarked) [Example 38, 4-(2-((2-phenyl-7-((tetrahydro-2H-pyran-4-yl)amino)-1H-indol-5-yl)methoxy)ethoxy)cyclohexan-1-ol] | > 1000
OCCOCCc1cc(NC2CCOCC2)c2[nH]c(-c3ccccc3)cc2c1 [Example 33, 2-(2-(2-phenyl-7-((tetrahydro-2H-pyran-4-yl)amino)-1H-indol-5-yl)ethoxy)ethan-1-ol] | ≤ 300
N#CCc1cc(NC2CCOCC2)c2[nH]c(-c3ccccc3)cc2c1 [Example 23, 2-(2-phenyl-7-((tetrahydro-2H-pyran-4-yl)amino)-1H-indol-5-yl)acetonitrile] | ≤ 300
O=C(NC1CC1)c1cc(NCc2ccccc2)c2[nH]c(-c3ccccc3)cc2c1 [Example 7, 7-(benzylamino)-N-cyclopropyl-2-phenyl-1H-indole-5-carboxamide] | ≤ 300
O=S1(=O)CCN(CCOCc2cc(NC3CCOCC3)c3[nH]c(-c4ccccc4)cc3c2)CC1 [Example 47, 4-(2-((2-phenyl-7-((tetrahydro-2H-pyran-4-yl)amino)-1H-indol-5-yl)methoxy)ethyl)thiomorpholine 1,1-dioxide] | 300 to 1000
CCNS(=O)(=O)c1cc(NC2CCOCC2)c2[nH]c(-c3ccccc3)cc2c1 [Example 20, N-ethyl-2-phenyl-7-((tetrahydro-2H-pyran-4-yl)amino)-1H-indole-5-sulfonamide] | ≤ 300
OCCOCc1cc(NC2CCCC2)c2[nH]c(-c3ccccc3)cc2c1 [Example 26, 2-((7-(cyclopentylamino)-2-phenyl-1H-indol-5-yl)methoxy)ethan-1-ol] | ≤ 300
FCCOCc1cc(NC2CCOCC2)c2[nH]c(-c3ccccc3)cc2c1 [Example 39, 5-((2-fluoroethoxy)methyl)-2-phenyl-N-(tetrahydro-2H-pyran-4-yl)-1H-indol-7-amine] | ≤ 300
COCCOCCN(C)Cc1cc(NC2CCOCC2)c2[nH]c(-c3ccccc3)cc2c1 [Example 58, 5-(((2-(2-methoxyethoxy)ethyl)(methyl)amino)methyl)-2-phenyl-N-(tetrahydro-2H-pyran-4-yl)-1H-indol-7-amine] | ≤ 300
CC(C)(O)C#Cc1cc(NC2CCCC2)c2[nH]c(-c3ccccc3)cc2c1 [Example 25, 4-(7-(cyclopentylamino)-2-phenyl-1H-indol-5-yl)-2-methylbut-3-yn-2-ol] | ≤ 300
c1ccc(-c2cc3cc(COCCN4CCOCC4)cc(NC4CCOCC4)c3[nH]2)cc1 [Example 42, 5-((2-morpholinoethoxy)methyl)-2-phenyl-N-(tetrahydro-2H-pyran-4-yl)-1H-indol-7-amine] | ≤ 300

SMILES | EC50 [nM]
CCN(CC)C(=O)c1cc(NC2CCCC2)c2[nH]c(-c3ccccc3)cc2c1 [Example 1, 7-(cyclopentylamino)-N,N-diethyl-2-phenyl-1H-indol-5-carboxamide] | ≤ 300
CS(=O)(=O)CCOCc1cc(NC2CCCC2)c2[nH]c(-c3ccccc3)cc2c1 [Example 44, N-cyclopentyl-5-((2-(methylsulfonyl)ethoxy)methyl)-2-phenyl-1H-indol-7-amine] | ≤ 300
O=C(Nc1ccccc1)c1cc(NC2CCOCC2)c2[nH]c(-c3ccccc3)cc2c1 [Example 9, N,2-diphenyl-7-((tetrahydro-2H-pyran-4-yl)amino)-1H-indole-5-carboxamide] | 300 to 1000
O=S1(=O)CCN(CCOCc2cc(NC3CCCC3)c3[nH]c(-c4ccccc4)cc3c2)CC1 [Example 43, 4-(2-((7-(cyclopentylamino)-2-phenyl-1H-indol-5-yl)methoxy)ethyl)thiomorpholine 1,1-dioxide] | ≤ 300
COCCOCCNC(=O)c1cc(NC2CCOCC2)c2[nH]c(-c3ccccc3)cc2c1 [Example 56, N-(2-(2-methoxyethoxy)ethyl)-2-phenyl-7-((tetrahydro-2H-pyran-4-yl)amino)-1H-indole-5-carboxamide] | 300 to 1000
CCN(CC)C(=O)Cc1cc(NC2CCOCC2)c2[nH]c(-c3ccccc3)cc2c1 [Example 12, N,N-diethyl-2-(2-phenyl-7-((tetrahydro-2H-pyran-4-yl)amino)-1H-indol-5-yl)acetamide] | ≤ 300
CN(CCO)CCOCc1cc(NC2CCOCC2)c2[nH]c(-c3ccccc3)cc2c1 [Example 53, 2-(methyl(2-((2-phenyl-7-((tetrahydro-2H-pyran-4-yl)amino)-1H-indol-5-yl)methoxy)ethyl)amino)ethan-1-ol] | ≤ 300
O=C(Cc1cc(NCc2ccccc2)c2[nH]c(-c3ccccc3)cc2c1)Nc1ccccc1 [Example 18, 2-(7-(benzylamino)-2-phenyl-1H-indol-5-yl)-N-phenylacetamide] | 300 to 1000
COCCN(C)CCOCc1cc(NC2CCOCC2)c2[nH]c(-c3ccccc3)cc2c1 [Example 61, 5-((2-((2-methoxyethyl)(methyl)amino)ethoxy)methyl)-2-phenyl-N-(tetrahydro-2H-pyran-4-yl)-1H-indol-7-amine] | ≤ 300
COCCN(C)C(=O)c1cc(NC2CCOCC2)c2[nH]c(-c3ccccc3)cc2c1 [Example 51, N-(2-methoxyethyl)-N-methyl-2-phenyl-7-((tetrahydro-2H-pyran-4-yl)amino)-1H-indole-5-carboxamide] | ≤ 300
OC1CCC(OCc2cc(NC3CCOCC3)c3[nH]c(-c4ccccc4)cc3c2)CC1 (centres unmarked) [Example 35, 4-((2-phenyl-7-((tetrahydro-2H-pyran-4-yl)amino)-1H-indol-5-yl)methoxy)cyclohexan-1-ol] | ≤ 300
OCCNCCOCc1cc(NC2CCOCC2)c2[nH]c(-c3ccccc3)cc2c1 [Example 48, 2-((2-((2-phenyl-7-((tetrahydro-2H-pyran-4-yl)amino)-1H-indol-5-yl)methoxy)ethyl)amino)ethan-1-ol] | 300 to 1000
O=C(Cc1cc(NC2CCOCC2)c2[nH]c(-c3ccccc3)cc2c1)Nc1ccccc1 [Example 19, N-phenyl-2-(2-phenyl-7-((tetrahydro-2H-pyran-4-yl)amino)-1H-indo1-5-yl)acetamide] | ≤ 300
c1ccc(-c2cc3cc(COC4CCOCC4)cc(NC4CCOCC4)c3[nH]2)cc1 [Example 37, 2-phenyl-N-(tetrahydro-2H-pyran-4-yl)-5-(((tetrahydro-2H-pyran-4-yl)oxy)methyl)-1H-indol-7-amine] | ≤ 300
CCN(CC)C(=O)c1cc(NC2CCOCC2)c2[nH]c(-c3ccccc3)cc2c1 [Example 2, N,N-diethyl-2-phenyl-7-((tetrahydro-2H-pyran-4-yl)amino)-1H-indol-5-carboxamide] | ≤ 300
O=C(NC1CC1)c1cc(NC2CCCC2)c2[nH]c(-c3ccccc3)cc2c1 [Example 5, 7-(cyclopentylamino)-N-cyclopropyl-2-phenyl-1H-indole-5-carboxamide] | ≤ 300
COCCN(C)Cc1cc(NC2CCOCC2)c2[nH]c(-c3ccccc3)cc2c1 [Example 55, 5-(((2-methoxyethyl)(methyl)amino)methyl)-2-phenyl-N-(tetrahydro-2H-pyran-4-yl)-1H-indol-7-amine] | ≤ 300
COCCOCCNCc1cc(NC2CCOCC2)c2[nH]c(-c3ccccc3)cc2c1 [Example 57, 5-(((2-(2-methoxyethoxy)ethyl)amino)methyl)-2-phenyl-N-(tetrahydro-2H-pyran-4-yl)-1H-indol-7-amine] | ≤ 300
CC(C)(O)COCc1cc(NC2CCOCC2)c2[nH]c(-c3ccccc3)cc2c1 [Example 30, 2-methyl-1-((2-phenyl-7-((tetrahydro-2H-pyran-4-yl)amino)-1H-indol-5-yl)methoxy)propan-2-ol] | ≤ 300
